Assay [1] concerns the target T1, Choline kinase alpha (ChoK) (Homo sapiens, UniProt P35790). The experiment in a line: […]-choline phosphorylation in MDA-MB-231 cells. The class given is cell-based.
Assay [2] has as its target T1, Choline kinase alpha (ChoK). As to the kind of experiment: […]-choline phosphorylation in intact MDA-MB-231 cells, […] h. The format is cell-based.

T1 sequence (P35790 whole entry): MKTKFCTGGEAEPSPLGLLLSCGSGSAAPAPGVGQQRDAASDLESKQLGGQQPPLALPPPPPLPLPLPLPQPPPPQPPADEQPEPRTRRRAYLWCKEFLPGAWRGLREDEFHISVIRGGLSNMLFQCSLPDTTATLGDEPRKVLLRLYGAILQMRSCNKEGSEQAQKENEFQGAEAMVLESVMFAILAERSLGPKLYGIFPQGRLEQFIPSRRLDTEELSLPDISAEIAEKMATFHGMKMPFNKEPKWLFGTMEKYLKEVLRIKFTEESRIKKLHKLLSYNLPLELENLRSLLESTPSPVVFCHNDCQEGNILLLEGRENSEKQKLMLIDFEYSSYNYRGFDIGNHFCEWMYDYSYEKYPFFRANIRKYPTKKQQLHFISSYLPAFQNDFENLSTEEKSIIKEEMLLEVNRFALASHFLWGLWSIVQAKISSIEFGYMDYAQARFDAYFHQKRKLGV

In assay [1], `CC1(C)C(/C=C/C=C/C=C/C=C2\N(CCO)c3ccccc3C2(C)C)=[N+](CCO)c2ccccc21` [JAS239, 1-(2-hydroxyethyl)-2-((1E,3E,5E)-7-((Z/E)-1-(2-hydroxyethyl)-3,3-dimethylindolin-2-ylidene)hepta-1,3,5-trien-1-yl)-3,3-dimethyl-3H-indol-1-ium chloride] had an IC50 of 4.6 µM.
In assay [2], `CN(C)c1cc[n+](Cc2ccc(CCCCc3ccc(C[n+]4ccc(N(C)C)cc4)cc3)cc2)cc1` [MN58b, 1,1′-((butane-1,4-diylbis(4,1-phenylene))bis(methylene))bis(4-(dimethylamino)pyridin-1-ium) bromide] showed a concentration for half-maximal inhibition (IC50) of 2.3 µM.
